Structures are written as SMILES. In brackets after ≈: the same amount, converted by molar mass. Like-named read-outs stand apart in the source and are kept apart here.

Data set [1] addresses T1, full-length beta-Catenin (Uniprot ID P35222) (Homo sapiens, UniProt P35222).
T1 construct: 10 nM full-length beta-Catenin (Uniprot ID P35222)
T1 sequence (P35222 1-781): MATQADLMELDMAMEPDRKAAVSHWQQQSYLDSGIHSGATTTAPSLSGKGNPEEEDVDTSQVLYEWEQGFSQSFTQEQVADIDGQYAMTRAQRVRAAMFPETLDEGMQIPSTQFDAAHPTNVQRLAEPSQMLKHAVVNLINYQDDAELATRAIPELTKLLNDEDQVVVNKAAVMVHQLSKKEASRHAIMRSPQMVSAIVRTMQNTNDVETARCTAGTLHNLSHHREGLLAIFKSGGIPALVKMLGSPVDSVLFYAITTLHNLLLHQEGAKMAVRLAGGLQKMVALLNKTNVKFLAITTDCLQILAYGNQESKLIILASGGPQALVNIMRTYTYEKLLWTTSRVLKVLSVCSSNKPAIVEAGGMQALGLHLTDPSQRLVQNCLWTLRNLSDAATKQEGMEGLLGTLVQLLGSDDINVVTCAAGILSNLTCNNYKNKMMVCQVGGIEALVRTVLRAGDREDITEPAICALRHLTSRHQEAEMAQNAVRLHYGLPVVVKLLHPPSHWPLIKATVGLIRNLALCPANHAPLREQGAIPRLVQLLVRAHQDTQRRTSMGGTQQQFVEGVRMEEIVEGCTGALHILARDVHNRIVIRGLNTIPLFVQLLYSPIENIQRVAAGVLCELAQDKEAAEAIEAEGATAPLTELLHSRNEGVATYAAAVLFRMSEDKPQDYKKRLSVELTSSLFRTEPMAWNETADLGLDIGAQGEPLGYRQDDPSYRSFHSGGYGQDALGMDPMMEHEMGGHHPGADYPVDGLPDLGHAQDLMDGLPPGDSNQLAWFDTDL
The data set is described as follows: Fluorescence polarization IC50 (beta-catenin / 5FAM-TCF4 10-53 competition). The format is binding. A general note: In fluorescence polarisation assays a small probe gives low polarisation when free and higher when bound to something large.

The next data set in a line: CHI Log D procedure. Particulars: for CHI Log D: pH 7.4; for logD / chromatographic logD: pH 7.4, CHI Log D. The format is physicochemical.
A short description of a further data set: Solubility in PBS. Format: physicochemical. The method in brief:
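Steps: ultracentrifuge the peptide PBS solution, inject the supernatant on HPLC, inject a 50 μM peptide DMSO solution as reference, then calculate solubility as area ratio (PBS/DMSO) × 50 uM.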

[2] abbreviates: fluorescence polarization, read-out: beta-Catenin FP IC50.

Broadly, the Solubility is the concentration that dissolves in the medium under given conditions. As to `CC(=O)N1CCC[C@]12CC=CCCCC1(CCCC=CCCCCCC[C@@](C)(C(=O)N[C@@H](Cc3ccccc3)C(=O)N[C@@H](Cc3csc4ccccc34)C(=O)N[C@@H](CCC(N)=O)C(N)=O)NC(=O)[C@H](C(C)C)NC(=O)[C@H](Cc3cccc(F)c3F)NC(=O)[C@H](C)NC(=O)[C@H](C)NC(=O)[C@H](CCC(=O)O)NC(=O)[C@H](CC(=O)O)NC1=O)NC(=O)[C@H](C)NC(=O)[C@H](CC(=O)O)NC2=O` (stereo partly drawn) [I-391, Ac-PL3-Asp-Ala-B5-Asp-Glu-Ala-Ala-23FF-Val-S8-Phe-BztA-Gln-NH2], the IC50 was 1910 nM in data set [1] (fluorescence polarization, beta-catenin, read-out: FP EC50) and 1910 nM in data set [1] (setting [2]). In addition, in “CHI Log D procedure”, the “CHI Log D” value is 2.585. Further, the “Solubility” value in “Solubility in PBS” came to 10 µM (≈ 18.5 µg/mL).
The logD is the decadic logarithm of the distribution of all forms, ionised or not, between an organic phase and buffer at a given pH. A lower logD goes with a more hydrophilic compound. `CC(=O)N1CCC[C@]12CC=CCCCC1(CCCC=CCCCCCC[C@@](C)(C(=O)N[C@@H](Cc3ccccc3)C(=O)N[C@@H](Cc3csc4ccccc34)C(=O)N[C@@H](CCC(N)=O)C(N)=O)NC(=O)[C@H](C(C)C)NC(=O)[C@H](CC3CCCC3)NC(=O)[C@H](C)NC(=O)[C@H](C)NC(=O)[C@H](CCC(=O)O)NC(=O)[C@H](CC(=O)O)NC1=O)NC(=O)[C@H](C)NC(=O)[C@H](CC(=O)O)NC2=O` (stereo partly drawn) [I-392, Ac-PL3-Asp-Ala-B5-Asp-Glu-Ala-Ala-CypA-Val-S8-Phe-BztA-Gln-NH2]: the IC50 in data set [1] (setting [2]) is 5000 nM. In the data set “CHI Log D procedure”, the logD is 2.52. Moreover, the “Solubility” value in “Solubility in PBS” came to 10 µM (≈ 18 µg/mL).
For `CC(=O)N1CCC[C@]12CC=CCCCC1(CCCC=CCCCCCC[C@@](C)(C(=O)N[C@@H](CC3CCCC3)C(=O)N[C@@H](Cc3csc4ccccc34)C(=O)N[C@@H](CCC(N)=O)C(N)=O)NC(=O)[C@H](C(C)C)NC(=O)[C@H](Cc3ccccc3)NC(=O)[C@H](C)NC(=O)[C@H](C)NC(=O)[C@H](CCC(=O)O)NC(=O)[C@H](CC(=O)O)NC1=O)NC(=O)[C@H](C)NC(=O)[C@H](CC(=O)O)NC2=O` (stereo partly drawn) [I-393, Ac-PL3-Asp-Ala-B5-Asp-Glu-Ala-Ala-Phe-Val-S8-CypA-BztA-Gln-NH2], in that order: 1950 nM, 2.64 and 10 µM (≈ 18 µg/mL).
Usually chromatographic logD stands for a lipophilicity value derived from retention on a column. Consider `CC(=O)N1CCC[C@]12CC=CCCCC1(CCCC=CCOC(=O)N(C)CCC[C@@](C)(C(=O)N[C@@H](Cc3cccc(F)c3)C(=O)N[C@@H](Cc3csc4ccccc34)C(=O)N[C@@H](CCC(N)=O)C(N)=O)NC(=O)[C@H](C(C)C)NC(=O)[C@H](Cc3ccccc3)NC(=O)[C@H](C)NC(=O)[C@H](C)NC(=O)[C@H](Cc3c[nH]cn3)NC(=O)[C@H](CC(=O)O)NC1=O)NC(=O)[C@H](C)NC(=O)[C@H](CC(=O)O)NC2=O` (stereo partly drawn) [I-398, Ac-PL3-Asp-Ala-B5-Asp-His-Ala-Ala-Phe-Val-SeN-3FF-BztA-Gln-NH2], for which the IC50 in data set [1] (setting [2]) was 2150 nM. In the data set “CHI Log D procedure”, this molecule returned a chromatographic logD of 1.85. In “Solubility in PBS” (Solubility (uM)), this molecule came in with a Solubility of 46 µM (≈ 86.6 µg/mL).
Taken in the same sequence, the figures for `CC(=O)N1CCC[C@]12CC=CCCCC1(CCCC=CCCCCCC[C@@](C)(C(=O)N[C@@H](Cc3ccccc3)C(=O)N[C@@H](Cc3csc4ccccc34)C(=O)N[C@@H](CCC(N)=O)C(N)=O)NC(=O)[C@H](CCC(N)=O)NC(=O)[C@H](Cc3ccccc3)NC(=O)[C@H](C)NC(=O)[C@H](C)NC(=O)[C@H](CCC(=O)O)NC(=O)[C@H](CC(=O)O)NC1=O)NC(=O)[C@H](C)NC(=O)[C@H](CC(=O)O)NC2=O` (stereo partly drawn) [I-406, Ac-PL3-Asp-Ala-B5-Asp-Glu-Ala-Ala-Phe-Gln-S8-Phe-BztA-Gln-NH2] were 94 nM, 2.04 and 28 µM (≈ 51.6 µg/mL).
Take `CC[C@H](C)[C@@H]1NC(=O)[C@H](CC(=O)O)NC(=O)[C@]2(CC=CCCCC3(CCCC=CCCCCCC[C@@](C)(C(=O)N[C@@H](Cc4ccccc4)C(=O)N[C@@H](Cc4csc5ccccc45)C(N)=O)NC(=O)[C@H](CCC(N)=O)NC(=O)[C@H](Cc4ccccc4)NC(=O)[C@H](C)NC(=O)[C@H](C)NC(=O)[C@H](CCC(=O)O)NC(=O)[C@H](CC(=O)O)NC3=O)NC1=O)CCCN2C(C)=O` (stereo partly drawn) [I-408, Ac-PL3-Asp-Ile-B5-Asp-Glu-Ala-Ala-Phe-Gln-S8-Phe-BztA-NH2]: the IC50 in data set [1] (setting [2]) and in data set [1] (read-out: FP EC50) was 120 nM in each case. Besides, the “CHI Log D” value in “CHI Log D procedure” came to 2.674. Also, the “Solubility” value in the data set “Solubility in PBS” worked out at 50 µM (≈ 87.8 µg/mL).

These data come from US20240116985A1, “STAPLED PEPTIDES AND METHODS THEREOF” (priority 2020, published 2024).
